From article PMC4937633 (Journal of Drug Assessment, 2014)
Where “and” joins values, the source holds several entries; their conditions need not be identical. Equal values may be shown once. Read-outs that look alike come from different tables or passages of the source.

Key:
[1] = molecular target: T1, human MDR1 (Homo sapiens, UniProt P08183); test: P-glycoprotein substrate test, human MDR1 transfected MDCKII cells (M-MDR1); format: in vitro ADME; settings: in vitro; M-MDR1 and L-MDR1 cells
T1 construct: host or cells: MDCKII (canine kidney epithelial cells), M-MDR1
Excerpt: (§1) Wild type and transfected MDCKII (ATCC #CCL34, cocker spaniel kidney epithelial cell line) and the LLCPK (ATCC #CL-101, porcine kidney epithelial cell line) cell lines were obtained from Dr A. Schinkel (The Netherlands Cancer Institute, Amsterdam, The Netherlands) and used under license agreement. […] The non-transfected wild-type cell lines MDCKII or LLCPK were used as controls. […] More assay details were recently published.

[2] = molecular target: T2, mouse mdr1a (Mus musculus, UniProt P21447); test: P-glycoprotein substrate test, mouse mdr1a transfected LLCPK cells (L-Mdr1a); format: in vitro ADME; settings: in vitro
T2 construct: host or cells: LLCPK (porcine kidney epithelial cells), L-Mdr1a
Excerpt: as §1

[3] = molecular target: T3, P-glycoprotein (Pgp) (Homo sapiens, UniProt P08183); test: Pgp inhibition potential with digoxin as model substrate (M-MDR1 cells); format: in vitro ADME; settings: in vitro
T3 construct: host or cells: transfected MDCKII or LLCPK cells
Excerpt: The non-transfected wild-type cell lines MDCKII or LLCPK were used as controls. […] More assay details were recently published.

[4] = In vitro cell permeability; format: in vitro ADME
Excerpt: as §1

[5] = system: primary rat hepatocytes; test: Uptake by primary rat hepatocytes; format: in vitro ADME; settings: data not shown
[6] = system: primary human hepatocytes; test: Uptake by primary human hepatocytes; format: in vitro ADME; settings: data not shown
[7] = system: CHO cells; test: Uptake in CHO cells; format: in vitro ADME; settings: data not shown
[8] = Clinical pharmacokinetics of carmegliptin (plasma and urine) alone or with verapamil; format: in vivo, human; settings: for AUC(0-inf) / Cmax / half-life / AUC(0-t) / Vd/F / Tmax: plasma; for Vd/F: read-out: Vz/F; for Tmax: median (range)
Description: All urine produced by subjects during each sampling interval was collected in pre-weighed polyethylene containers. The urine was refrigerated (2–8°C) between collections and, at the end of each collection interval, an aliquot of ∼10 mL was transferred to polyethylene tubes.
Plasma and urine samples were analyzed for carmegliptin by high-performance liquid chromatography combined with tandem mass spectrometric detection at F. Hoffmann-La Roche Ltd, Basel, Switzerland. The lower limit of quantification was 1 ng/mL for plasma and 20 ng/mL for urine.

[9] = Clinical safety and tolerability assessments; format: in vivo, human
Excerpt: Safety assessments during the treatment period included all adverse events, clinical laboratory safety tests (days 3, 9, and 14), urine chemistry (days 1, 10, and 15), 24-h ECGs (days 1, 10, and 15), and Lead-2 telemetry (days 1, 10, and 15). Subjects were resident in the unit on four occasions (day – 1 to day 3, day 6 to day 8 [morning], day 9 [evening] to day 12, and day 14 to day 17). Ambulatory visits were also required on day 8 (evening) and day 9 (morning) for pharmacokinetic sampling.
All adverse events (AEs) occurring during the clinical study were recorded and their intensity was assessed by investigators as mild, moderate, or severe. AEs occurring before first dosing were reported as baseline signs and symptoms. […] Investigators also assessed each AE’s relationship to treatment as unrelated, remote, possible, or probable. Factors used to determine the relationship to treatment included the temporal association of the AE with administration of study drug, the known pattern of response to the suspected drug, and re-appearance of the AE on re-challenge with the drug.
Vital signs, systolic and diastolic blood pressure, heart rate, and oral temperature were assessed after the subject had been in a supine position for at least 5 min. Vital signs were recorded at the following time-points: Screening visit, treatment period (days 1, 10, and 15 pre-dose and at 2, 6, and 12 h post-dose, and pre-dose only on days 3, 7, and 11–14), and at the follow-up visit. In addition, 12 lead-ECGs were recorded at screening visit day – 1, on days 1, 10, and 15 (pre-dose and at 2, 6, and 12 h post-dose) and at the follow-up visit. Heart rate, QT, QTcB, PR, and QRS were captured directly from the ECG machine. QTcF and RR were derived. T-wave morphology, the occurrence of U-waves, and any other observed abnormalities were additionally recorded. […] The CRF captured whether the results were normal or abnormal.

[10] = system: Type 2 diabetes animal models; parameters: method as in PMID 17073841, PMID 17981667; settings: dose-dependent; cited from earlier work
[11] = system: Pgp; settings: in vitro; cited from earlier work
[12] = Clinical pharmacokinetics of verapamil and norverapamil alone or with carmegliptin; settings: male, human, plasma, oral, 80 mg
[13] = acute verapamil (day 10) vs day 1
[14] = carmegliptin 150 mg + chronic verapamil 80 mg t.i.d., day 15, geometric mean (CV%)
[15] = chronic verapamil (day 15) vs day 1
[16] = male, human, oral, 150 mg, carmegliptin 150 mg single dose alone, day 1, geometric mean (CV%)
[17] = male, human, oral, carmegliptin 150 mg + acute verapamil 80 mg t.i.d., day 10, geometric mean (CV%)
[18] = male, human, oral, carmegliptin 150 mg + chronic verapamil 80 mg t.i.d., day 15, geometric mean (CV%)

T1 sequence (P08183 whole entry): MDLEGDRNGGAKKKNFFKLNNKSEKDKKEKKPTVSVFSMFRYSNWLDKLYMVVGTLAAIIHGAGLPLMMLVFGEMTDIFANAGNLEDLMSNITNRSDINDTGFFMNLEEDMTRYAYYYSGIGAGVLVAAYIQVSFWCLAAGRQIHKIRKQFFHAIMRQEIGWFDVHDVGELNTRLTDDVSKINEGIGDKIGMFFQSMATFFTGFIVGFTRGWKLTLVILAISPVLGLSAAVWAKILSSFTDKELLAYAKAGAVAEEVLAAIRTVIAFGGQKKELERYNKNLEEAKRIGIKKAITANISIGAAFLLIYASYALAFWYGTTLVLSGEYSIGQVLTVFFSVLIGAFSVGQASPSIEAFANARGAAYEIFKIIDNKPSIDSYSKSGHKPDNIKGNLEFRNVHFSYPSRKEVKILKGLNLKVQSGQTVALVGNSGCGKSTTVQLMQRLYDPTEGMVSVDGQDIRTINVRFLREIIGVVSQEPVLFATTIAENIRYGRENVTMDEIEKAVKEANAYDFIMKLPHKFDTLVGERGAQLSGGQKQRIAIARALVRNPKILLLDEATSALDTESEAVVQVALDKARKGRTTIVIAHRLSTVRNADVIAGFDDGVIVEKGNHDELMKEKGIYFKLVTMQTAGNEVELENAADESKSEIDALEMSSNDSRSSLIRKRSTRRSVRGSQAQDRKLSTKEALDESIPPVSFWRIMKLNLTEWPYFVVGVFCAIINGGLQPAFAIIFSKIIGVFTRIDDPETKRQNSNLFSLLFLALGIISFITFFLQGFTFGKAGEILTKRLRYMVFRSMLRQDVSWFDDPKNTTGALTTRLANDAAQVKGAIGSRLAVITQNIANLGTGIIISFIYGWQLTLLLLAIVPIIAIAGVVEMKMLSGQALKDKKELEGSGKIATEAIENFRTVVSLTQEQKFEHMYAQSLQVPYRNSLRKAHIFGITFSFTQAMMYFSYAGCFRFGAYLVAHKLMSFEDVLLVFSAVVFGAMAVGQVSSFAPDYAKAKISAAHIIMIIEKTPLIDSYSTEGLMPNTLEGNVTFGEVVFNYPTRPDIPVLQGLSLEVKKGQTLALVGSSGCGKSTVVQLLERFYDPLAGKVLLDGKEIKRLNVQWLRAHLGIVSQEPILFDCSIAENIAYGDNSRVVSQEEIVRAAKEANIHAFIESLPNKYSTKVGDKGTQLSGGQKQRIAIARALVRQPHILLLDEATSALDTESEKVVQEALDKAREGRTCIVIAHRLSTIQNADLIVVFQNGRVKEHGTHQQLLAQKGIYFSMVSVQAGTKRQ
T2 sequence (P21447 whole entry): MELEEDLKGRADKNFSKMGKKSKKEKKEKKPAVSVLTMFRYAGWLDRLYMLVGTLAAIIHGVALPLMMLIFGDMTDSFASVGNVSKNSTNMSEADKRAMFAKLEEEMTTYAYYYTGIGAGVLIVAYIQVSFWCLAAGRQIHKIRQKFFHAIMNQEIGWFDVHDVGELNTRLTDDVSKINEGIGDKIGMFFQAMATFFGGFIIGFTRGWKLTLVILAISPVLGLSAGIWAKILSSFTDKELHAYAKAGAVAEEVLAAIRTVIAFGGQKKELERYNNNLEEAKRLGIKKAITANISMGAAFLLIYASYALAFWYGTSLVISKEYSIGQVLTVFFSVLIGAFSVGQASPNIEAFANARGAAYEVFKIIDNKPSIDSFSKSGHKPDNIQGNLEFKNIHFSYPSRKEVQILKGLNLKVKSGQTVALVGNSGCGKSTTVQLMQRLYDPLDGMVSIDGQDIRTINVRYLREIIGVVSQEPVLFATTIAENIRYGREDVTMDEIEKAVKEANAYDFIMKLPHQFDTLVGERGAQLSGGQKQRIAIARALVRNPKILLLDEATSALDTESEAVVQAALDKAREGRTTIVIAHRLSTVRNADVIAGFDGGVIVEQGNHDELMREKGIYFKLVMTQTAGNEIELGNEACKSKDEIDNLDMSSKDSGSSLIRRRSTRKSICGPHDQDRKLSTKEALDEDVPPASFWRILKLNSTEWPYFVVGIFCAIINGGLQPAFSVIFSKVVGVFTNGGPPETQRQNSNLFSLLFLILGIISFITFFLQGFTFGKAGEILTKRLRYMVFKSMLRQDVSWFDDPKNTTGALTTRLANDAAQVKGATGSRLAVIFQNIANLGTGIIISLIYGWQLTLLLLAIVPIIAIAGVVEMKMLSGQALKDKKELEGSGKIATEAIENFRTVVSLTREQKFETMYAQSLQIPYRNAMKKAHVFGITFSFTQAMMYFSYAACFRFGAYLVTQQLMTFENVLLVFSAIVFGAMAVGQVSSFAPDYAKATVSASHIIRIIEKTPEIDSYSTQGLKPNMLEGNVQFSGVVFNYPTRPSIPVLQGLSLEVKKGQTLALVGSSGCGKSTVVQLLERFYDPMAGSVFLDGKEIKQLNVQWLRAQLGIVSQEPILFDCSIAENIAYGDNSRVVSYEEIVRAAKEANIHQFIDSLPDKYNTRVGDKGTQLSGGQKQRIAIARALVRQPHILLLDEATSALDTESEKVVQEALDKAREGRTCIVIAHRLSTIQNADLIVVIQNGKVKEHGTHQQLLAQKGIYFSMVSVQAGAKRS
T3 sequence (P08183 whole entry): as the sequence (P08183 whole entry) above

COc1cc2c(cc1OC)[C@@H]1C[C@H](N)[C@@H](N3C[C@@H](CF)CC3=O)CN1CC2 [Carmegliptin]
substrate of human MDR1 / human Pgp [1]: good substrate | substrate of rodent mdr1a [2]: good substrate | inhibitor of P-glycoprotein (Pgp) [3]: not an inhibitor | cell permeability [4]: low cell permeability | uptake process [5]: mainly passive diffusion | uptake process [6]: mainly passive diffusion | uptake process [7]: mainly passive diffusion | AUCinf higher than carmegliptin alone [8, 13]: 19% | Cmax higher than carmegliptin alone [8, 13]: 48% | maximum plasma levels attained earlier than carmegliptin alone [8, 13]: ~2.25 h | Fe (fraction of dose excreted unchanged in urine over 48 h) ([8]; carmegliptin 150 mg + acute verapamil 80 mg t.i.d., day 10, geometric mean (CV%)): 33% and 33.1% and 33.1 (17.7) % | CLr (renal clearance) [8, 14]: 13.6 (14.7) L/h | Fe (fraction of dose excreted unchanged in urine over 48 h) [8, 14]: 38.7% and 38.7 (18.1) % | Fe (fraction of dose excreted unchanged in urine over 48 h) ([8]; carmegliptin 150 mg single dose alone, day 1, geometric mean (CV%)): 26% and 26.0 (22.7) % | AUCinf higher than carmegliptin alone [8, 15]: 29% | Cmax higher than carmegliptin alone [8, 15]: 53% | maximum plasma levels attained earlier than carmegliptin alone [8, 15]: ~1.5 h | peak concentrations occurred earlier ([8]; co-administered with verapamil, acute and chronic): 1.5 to 2.25 h | CL renal ([8]; male, human, plasma and urine, oral, 150 mg, read-out: CLr (renal clearance) (converted)): 215 mL/min | AUC(0-inf) [8, 16]: 3570 ng·h/mL | Cmax [8, 16]: 342 ng/mL | half-life [8, 16]: 22.4 h | AUC(0-t) ([8]; male, human, oral, 150 mg, carmegliptin 150 mg single dose alone, day 1, geometric mean (CV%), read-out: AUC0–24): 2410 ng·h/mL | AUC(0-t) ([8]; male, human, oral, 150 mg, carmegliptin 150 mg single dose alone, day 1, geometric mean (CV%), read-out: AUClast): 3010 ng·h/mL | Vd/F [8, 16]: 1360 L | Tmax ([8]; male, human, oral, 150 mg, carmegliptin 150 mg single dose alone, day 1): 3 h | AUC(0-inf) [8, 17]: 4250 ng·h/mL | Cmax [8, 17]: 505 ng/mL | half-life [8, 17]: 21.8 h | AUC(0-t) ([8]; male, human, oral, carmegliptin 150 mg + acute verapamil 80 mg t.i.d., day 10, geometric mean (CV%), read-out: AUC0–24): 2950 ng·h/mL | AUC(0-t) ([8]; male, human, oral, carmegliptin 150 mg + acute verapamil 80 mg t.i.d., day 10, geometric mean (CV%), read-out: AUClast): 3650 ng·h/mL | Vd/F [8, 17]: 1110 L | Tmax ([8]; male, human, oral, carmegliptin 150 mg + acute verapamil 80 mg t.i.d., day 10): 0.75 h | AUC(0-inf) [8, 18]: 4590 ng·h/mL | Cmax [8, 18]: 522 ng/mL | half-life [8, 18]: 14.4 h | AUC(0-t) ([8]; male, human, oral, carmegliptin 150 mg + chronic verapamil 80 mg t.i.d., day 15, geometric mean (CV%), read-out: AUC0–24): 3620 ng·h/mL | AUC(0-t) ([8]; male, human, oral, carmegliptin 150 mg + chronic verapamil 80 mg t.i.d., day 15, geometric mean (CV%), read-out: AUClast): 4280 ng·h/mL | Vd/F [8, 18]: 678 L | Tmax ([8]; male, human, oral, carmegliptin 150 mg + chronic verapamil 80 mg t.i.d., day 15): 1.5 h | subjects with prolonged PQ(PR) intervals (>200 ms) ([9]; after carmegliptin alone (day 1)): one | tolerability ([9]; combination of carmegliptin and verapamil): generally well tolerated | changes in vital signs, ECGs, or laboratory test variables attributed to treatment ([9]; healthy male volunteers): No changes | tolerability ([9]; healthy male volunteers, carmegliptin 150 mg): generally well tolerated | glucose tolerance [10]: improved glucose tolerance

COc1ccc(CCNCCCC(C#N)(c2ccc(OC)c(OC)c2)C(C)C)cc1OC (stereo not shown) [Norverapamil]
effect on Pgp activity [11]: inhibitory effects on Pgp activity | AUC(0-t) [12]: 203 ng·h/mL | Cmax [12]: 63.8 ng/mL | Tmax [12]: 1 h
